Results taken from patent US6518317B1, “Antiviral agents” (priority 1997, dated 2003).

Experiments:
[1] = test system: carcinogenesis caused by a two-stage carcinogenesis on skin; experiment: Two-stage (DMBA/TPA) carcinogenesis on skin of mice; assay type: in vivo, mice of ICR strain; details: mouse, in vivo
Procedure: Hair on the back of mice of ICR strain (purchased from Nippon SLC; seven weeks age; female) was shaved and DMBA (dimethylbenzanthracene) as an initiator in a form of a solution in acetone was applied thereto at the dose of 50 μg/mouse.
Thus, FIG. 5 is a graph showing the anti-carcinogenic action of the cyclopentenone in which ordinate is a carcinogenic rate while abscissa is time (weeks). In the graph, open triangles, black triangles and open circles stand for a group treated with 2.5 mg of the cyclopentenone per mouse (12 mice in total), a group treated with 0.8 mg of the cyclopentenone per mouse (11 mice in total) and a control group (12 mice in total), respectively.

[2] = test system: heat shock protein of 70 kDa; experiment: Induction of heat shock protein of 70 kDa in HL-60 cells (SDS-PAGE and blotting); assay type: cell-based, human; details: HL-60 cells, as Table 1
Procedure: (1) An RPMI 1640 medium (5 ml) containing 10% of fetal bovine serum which contained 2×10^5 cells/ml of human promyelocytic leukemia cells HL-60 (ATCC CCL-240) was placed in each well of a six-well plate, incubated at 37° C. for 24 hours in the presence of 5% of CO2, then the cyclopentenone described in the referential example L was added thereto to make its final concentration 0, 10, 20, 30, 40, 50, or 100 μM and the incubation was further continued for eight hours more.
After completion of the incubation, cell numbers were counted and the cells were recovered by centrifugation and washed with phosphate-buffered saline (PBS) to prepare cyclopentenone-treated cells. In the meanwhile, cells which were heated at 45° C. for ten minutes followed by subjecting to the same incubation were prepared as well.
The cells treated as such were subjected to an SDS-polyacrylamid gel electrophoresis (SDS-PAGE) by a method mentioned in “Molecular Cloning” [Cold Spring Harbor Laboratory Press, (1989)]. The treated cells were suspended in an SDS-PAGE sample buffer to make the concentration 2.5×10^6 cells/ml, the resulting cell suspension was treated at 100° C. for ten minutes and each 5 μl thereof was applied to two sheets of SDS-PAGE gels (5% stacking gel; 10% separation gel) to conduct anelectrophoresis. One of the gels was Coomassie stained while another gel was subjected to a blotting to a polyvinylidene difluoride transfer membrane (Immobilon™, manufactured by Millipore, catalog no. IPVH000-10). The membrane was subjected to a blocking at 4° C. for one night with Block Ace (manufactured by Dainippon Pharmaceutical; catalog no. UK-B25).
The blocked membrane was made to react with monoclonal antibody HSP 72/73 (Ab-1) (manufactured by Oncogene Research Products, catalog no. HSP01) which would specifically react with heat-induced heat shock protein of 70 kDa and washed with TBS containing 0.05% of Tween 20 followed by further washing with TBS. After that, it was made to react with peroxidase-compounded secondary antibody HRP-Rabbit Anti-Mouse IgG (H+L) (manufactured by Zymed Laboratories, catalog no. 61-6520) and washed by the same manner as in the above operation. The membranes which were treated with primary and secondary antibodies as such were made to react with Renaissance™ (a chemiluminor reagent manufactured by Dupont NEN, catalog no. NEL-100) and photosensitized with an X-ray film to confirm the induction of heat shock protein of 70 kDa.
The result was that, by addition of cyclopentenone (20 to 30 μM), induction of heat shock protein of 70 kDa which is almost same as heat-treated at 45° C. for 10 minutes was confirmed. In Table 1, “+” indicates degree of intensity of induction and the more the numbers of “+”, the more the intensity of induction. Incidentally, “−” means that no induction was noted and “±” means the induction was slight.

Ad5 dlX [an adenovirus] = experiment: Adenovirus hexon protein in HeLa cells treated with cyclopentenone before infection; assay type: cell-based; details: Examples 2-(2)~(6)
Procedure: After that, the cells were washed with the DMEM containing 5% of fetal bovine serum, then the DMEM containing 5% of fetal bovine serum which contained Ad5 dlX [an adenovirus; Saito, etal.; Journal ofVirology, volume 54, pages 711-719 (1985)] was added to the cells so that the cells were infected therewith and incubation was conducted for 20 hours. […] The medium was discarded, 1 ml of 10% trichloroacetic acid was added to each of the wells and the cells were recovered by a scraper.
Then SDS-PAGE and blotting of the treated cells obtained hereinabove were conducted by the method of Example 1 to detect the expression of hexon proteins of the adenovirus. Incidentally, anti-adenovirus hexon antibody (AB 1056; manufactured by Chemicon International Inc.) was used as the primary antibody.

Sendai virus = details: cited from earlier work
[3] = test system: vesicular stomatitis virus; details: cited from earlier work

| SMILES | anti-promoter action in two-stage chemical carcinogenesis, compared with the cyclopentenone [1] | induction of heat shock protein of 70 kDa, compared with the cyclopentenone [2] | antiviral activity to adenovirus, compared with the cyclopentenone (Ad5 dlX [an adenovirus]) | also measured |
| --- | --- | --- | --- | --- |
| O=C1C=C[C@@H](O)[C@@H]1O (single isomer, unassigned) [(−)-cyclopentenone] | same result | Same results | Same results | – |
| CCCCC[C@H](O)/C=C/[C@H]1C=CC(=O)[C@@H]1CCCCCCC(=O)O [prostaglandin Al, prostaglandin A1] | – | – | – | synthesis of HSP70 and HSP90 (Sendai virus; animal cells infected with Sendai virus): induced; synthesis of virus protein (Sendai virus; during the synthesis of HSP70 is induced): inhibited |
| O=C1C=CCC1 [2-cyclopenten-1-one] | – | – | – | concentration required for inducing the HSP70 [3]: several hundred; synthesis of HSP70 [3]: induces; synthesis of vesicular stomatitis virus protein [3]: inhibits |
| O=C1C=C[C@H](O)[C@H]1O (single isomer, unassigned) [(+)-cyclopentenone] | same result | Same results | Same results | – |
